Laboratory results reported in patent publication US20050101595A1, “N-containing cycloalkyl-substituted amino-thiazole derivatives and pharmaceutical compositions for inhibiting cell proliferation and methods for their use” (PFIZER INC., priority 2003, published 2005).
pIC50: −log10 of the molar value. Where a name gives a salt, the structure may show the parent alone.

The compounds below were run on HCT-116 cell line (assay: Inhibition of cell growth, tetrazolium salt (MTT) assay). Conditions: HCT116 cells; compound at 250 nM.
Assay type: cell-based
Experimental: Inhibition of Cell Growth: Assessment of Cytotoxicity:
Inhibition of cell growth was measured using the tetrazolium salt assay, which is based on the ability of viable cells to reduce 3-(4,5-dimethylthiazol-2-yl)-2,5-[2H]-diphenyltetrazolium bromide (MTT) to formazan (Mossman, Journal of Immunological Methods, vol. 65 (1983), pp. 55-58). The water-insoluble purple formazan product was then detected spectrophotometrically. The HCT-116 cell line was used as a representative cancer cell line and grown in 96-well plates. Cells were plated in McCoy's 5A Medium at a volume of 135 μl/well. Plates were incubated for four hours before addition of inhibitor compounds. Different concentrations of inhibitor compounds were added in 0.5% (v/v) dimethylsulfoxide (15 μLuwell), and cells were incubated at 37° C. (5% CO2) for three to five days. At the end of the incubation, MTT was added to a final concentration of 0.2 mg/mL, and cells were incubated for 4 hours more at 37° C. After centrifugation of the plates and removal of medium, the absorbance of the formazan (solubilized in dimethylsulfoxide) was measured at 540 nm. […] All results were compared to control cells treated only with 0.5% (v/v) dimethylsulfoxide.

Row | Structure (SMILES) | % Inhibition HCT116 @ 250 nM [%]
1 | CC1CCCC(NCCS(=O)(=O)N2CCC(Nc3nc(N)c(C(=O)c4c(F)cccc4F)s3)CC2)C1 (mixture of isomers) [Example S57] | 73

Same assay, conditions: HCT116 cells; compound at 250 nM; 0.25 µM

Row | Structure (SMILES) | % Inhibition HCT116 @ 250 nM [%]
2 | Nc1nc(NC2CCN(S(=O)(=O)CCNCc3cccnc3)CC2)sc1C(=O)c1c(F)cccc1F [Example S56] | 73
3 | CC(=O)NCCNCCS(=O)(=O)N1CCC(Nc2nc(N)c(C(=O)c3c(F)cccc3F)s2)CC1 [Example S113] | 51

Same assay, conditions: Homo sapiens, HCT-116, 120 h, first HCT-116 column (c4); MTT, three to five days; read-out: HCT-116 IC50

Row | Structure (SMILES) | pIC50
4 | CC(C)(C)CNCCS(=O)(=O)N1CCC(Nc2nc(N)c(C(=O)c3c(F)cccc3F)s2)CC1 [Example K51, (4-Amino-2-{1-[2-(2,2-dimethyl-propylamino)-ethanesulfonyl]-piperidin-4-ylamino}-thiazol-5-yl)-(2,6-difluoro-phenyl)-methanone] | 6.77
5 | CN(C)CC#Cc1ccc(S(=O)(=O)N2CCC(Nc3nc(N)c(C(=O)c4c(F)cccc4F)s3)CC2)cc1 [Example I9, 1-(4-Amino-2-{1-[4-(3-dimethylamino-prop-1-ynyl)-benzenesulfonyl]-piperidin-4-ylamino}-thiazol-5-yl)-1-(2,6-difluoro-phenyl)-methanone D-Glucuronic Acid Salt] | 7.00
6 | Nc1nc(NC2CCN(S(=O)(=O)CCNCc3cccc(Cl)c3)CC2)sc1C(=O)c1c(F)cccc1F [Example K52, (4-Amino-2-{1-[2-(3-chloro-benzylamino)-ethanesulfonyl]-piperidin-4-ylamino}-thiazol-5-yl)-(2,6-difluoro-phenyl)-methanone] | 6.96
7 | CC(C)(NCCS(=O)(=O)N1CCC(Nc2nc(N)c(C(=O)c3c(F)cccc3F)s2)CC1)c1ccccc1 [Example K49, (4-Amino-2-{1-[2-(1-methyl-1-phenyl-ethylamino)-ethanesulfonyl]-piperidin-4-ylamino}-thiazol-5-yl)-(2,6-difluoro-phenyl)-methanone] | 6.74

Same assay, conditions: Homo sapiens, HCT-116, 120 h, second HCT-116 column (c5); MTT, three to five days; read-out: HCT-116 IC50

Row | Structure (SMILES) | pIC50
8 | CC(C)(C)CNCCS(=O)(=O)N1CCC(Nc2nc(N)c(C(=O)c3c(F)cccc3F)s2)CC1 [Example K51, (4-Amino-2-{1-[2-(2,2-dimethyl-propylamino)-ethanesulfonyl]-piperidin-4-ylamino}-thiazol-5-yl)-(2,6-difluoro-phenyl)-methanone] | 6.30
9 | CN(C)CC#Cc1ccc(S(=O)(=O)N2CCC(Nc3nc(N)c(C(=O)c4c(F)cccc4F)s3)CC2)cc1 [Example I9, 1-(4-Amino-2-{1-[4-(3-dimethylamino-prop-1-ynyl)-benzenesulfonyl]-piperidin-4-ylamino}-thiazol-5-yl)-1-(2,6-difluoro-phenyl)-methanone D-Glucuronic Acid Salt] | 6.30
10 | Nc1nc(NC2CCN(S(=O)(=O)CCNCc3cccc(Cl)c3)CC2)sc1C(=O)c1c(F)cccc1F [Example K52, (4-Amino-2-{1-[2-(3-chloro-benzylamino)-ethanesulfonyl]-piperidin-4-ylamino}-thiazol-5-yl)-(2,6-difluoro-phenyl)-methanone] | 6.60
11 | CC(C)(NCCS(=O)(=O)N1CCC(Nc2nc(N)c(C(=O)c3c(F)cccc3F)s2)CC1)c1ccccc1 [Example K49, (4-Amino-2-{1-[2-(1-methyl-1-phenyl-ethylamino)-ethanesulfonyl]-piperidin-4-ylamino}-thiazol-5-yl)-(2,6-difluoro-phenyl)-methanone] | 6.30

Same assay, conditions: Homo sapiens, HCT-116, HCT116 cells; compound at 250 nM; read-out: % Inhibition HCT116 @ 250 nM

Row | Structure (SMILES) | inhibition at 0.25 µM [%]
12 | COC(=O)CN(C)CCS(=O)(=O)N1CCC(Nc2nc(N)c(C(=O)c3c(F)cccc3F)s2)CC1 [Example S49] | 33
13 | Nc1nc(NC2CCN(S(=O)(=O)CCN3CCC(O)CC3)CC2)sc1C(=O)c1c(F)cccc1F [Example S24] | 14
14 | Nc1nc(NC2CCN(S(=O)(=O)CCNCCc3cnc[nH]3)CC2)sc1C(=O)c1c(F)cccc1F [Example S75] | 12
15 | Nc1nc(NC2CCN(S(=O)(=O)CCNCc3cccc(Cl)c3)CC2)sc1C(=O)c1c(F)cccc1F [Example S142] | 80
16 | CC(C)N(CCS(=O)(=O)N1CCC(Nc2nc(N)c(C(=O)c3c(F)cccc3F)s2)CC1)C1CCCCC1 [Example S8] | 91
17 | Nc1nc(NC2CCN(S(=O)(=O)CCNCC3CCCCC3)CC2)sc1C(=O)c1c(F)cccc1F [Example S67] | 40
18 | Nc1nc(NC2CCN(S(=O)(=O)CCN3CCC[C@@H]3CO)CC2)sc1C(=O)c1c(F)cccc1F [Example S54] | 16
19 | CC1CCCCN1CCS(=O)(=O)N1CCC(Nc2nc(N)c(C(=O)c3c(F)cccc3F)s2)CC1 (centres unmarked) [Example S15] | 46
20 | Cc1ccc(CNCCS(=O)(=O)N2CCC(Nc3nc(N)c(C(=O)c4c(F)cccc4F)s3)CC2)cc1 [Example S105] | 33
21 | Nc1nc(NC2CCN(S(=O)(=O)CCNCCc3ccc(O)cc3)CC2)sc1C(=O)c1c(F)cccc1F [Example S117] | 86
22 | Nc1nc(NC2CCN(S(=O)(=O)CCNCc3ccc(F)c(F)c3)CC2)sc1C(=O)c1c(F)cccc1F [Example S127] | 60
23 | Nc1nc(NC2CCN(S(=O)(=O)CCNC3Cc4ccccc4C3)CC2)sc1C(=O)c1c(F)cccc1F [Example S161] | 45
24 | COc1cccc(CNCCS(=O)(=O)N2CCC(Nc3nc(N)c(C(=O)c4c(F)cccc4F)s3)CC2)c1 [Example S100] | 38
25 | Nc1nc(NC2CCN(S(=O)(=O)CCNCc3ccc(F)cc3F)CC2)sc1C(=O)c1c(F)cccc1F [Example S124] | 51
26 | Nc1nc(NC2CCN(S(=O)(=O)CCN3CCCCC3CO)CC2)sc1C(=O)c1c(F)cccc1F (centres unmarked) [Example S13] | 24
27 | Nc1nc(NC2CCN(S(=O)(=O)CCNCCc3cccnc3)CC2)sc1C(=O)c1c(F)cccc1F [Example S167] | 3
28 | Nc1nc(NC2CCN(S(=O)(=O)CCNC3CCCc4ccccc43)CC2)sc1C(=O)c1c(F)cccc1F (centres unmarked) [Example S68] | 21
29 | Nc1nc(NC2CCN(S(=O)(=O)CCNC3CCCCC3)CC2)sc1C(=O)c1c(F)cccc1F [Example S58] | 50
30 | CN1CCC(NCCS(=O)(=O)N2CCC(Nc3nc(N)c(C(=O)c4c(F)cccc4F)s3)CC2)C1=O (centres unmarked) [Example S157] | 16
31 | Nc1nc(NC2CCN(S(=O)(=O)CCN3CCCC(O)C3)CC2)sc1C(=O)c1c(F)cccc1F (centres unmarked) [Example S39] | 14
32 | CC1CN(CCS(=O)(=O)N2CCC(Nc3nc(N)c(C(=O)c4c(F)cccc4F)s3)CC2)CC(C)O1 (centres unmarked) [Example S16] | 20
33 | C=C(C)CN(C)CCS(=O)(=O)N1CCC(Nc2nc(N)c(C(=O)c3c(F)cccc3F)s2)CC1 [Example S51] | 83
34 | CC(C)C(CO)NCCS(=O)(=O)N1CCC(Nc2nc(N)c(C(=O)c3c(F)cccc3F)s2)CC1 (centres unmarked) [Example S74] | 9
35 | Nc1nc(NC2CCN(S(=O)(=O)CCN[C@H]3C=CCCC3)CC2)sc1C(=O)c1c(F)cccc1F [Example S172] | 20

Row | Structure (SMILES) | inhibition at 0.25 µM [%]
36 | CC(NCCS(=O)(=O)N1CCC(Nc2nc(N)c(C(=O)c3c(F)cccc3F)s2)CC1)c1ccccc1 (centres unmarked) [Example S78] | 49
37 | Nc1nc(NC2CCN(S(=O)(=O)CCNCc3c(F)cccc3F)CC2)sc1C(=O)c1c(F)cccc1F [Example S126] | 68
38 | Nc1nc(NC2CCN(S(=O)(=O)CCNCC(=O)NO)CC2)sc1C(=O)c1c(F)cccc1F [Example S168] | 16
39 | CN(CCS(=O)(=O)N1CCC(Nc2nc(N)c(C(=O)c3c(F)cccc3F)s2)CC1)Cc1ccccc1 [Example S28] | 80
40 | CCN(CCO)CCS(=O)(=O)N1CCC(Nc2nc(N)c(C(=O)c3c(F)cccc3F)s2)CC1 [Example S5] | 26
41 | CC(C)(C)NCCS(=O)(=O)N1CCC(Nc2nc(N)c(C(=O)c3c(F)cccc3F)s2)CC1 [Example S81] | 82
42 | CN1CCCC1CCNCCS(=O)(=O)N1CCC(Nc2nc(N)c(C(=O)c3c(F)cccc3F)s2)CC1 (centres unmarked) [Example S69] | 31
43 | Nc1nc(NC2CCN(S(=O)(=O)CCNCCN3CCCCC3)CC2)sc1C(=O)c1c(F)cccc1F [Example S82] | 15
44 | NC(=O)[C@H]1CCCN1CCS(=O)(=O)N1CCC(Nc2nc(N)c(C(=O)c3c(F)cccc3F)s2)CC1 [Example S64] | 12
45 | CC(C)(NCCS(=O)(=O)N1CCC(Nc2nc(N)c(C(=O)c3c(F)cccc3F)s2)CC1)c1ccccc1 [Example S173] | 35
46 | COC[C@@H]1CCCN1CCS(=O)(=O)N1CCC(Nc2nc(N)c(C(=O)c3c(F)cccc3F)s2)CC1 [Example S42] | 12
47 | CN(CCc1ccccn1)CCS(=O)(=O)N1CCC(Nc2nc(N)c(C(=O)c3c(F)cccc3F)s2)CC1 [Example S26] | 17
48 | Nc1nc(NC2CCN(S(=O)(=O)CCNCc3cc(F)ccc3F)CC2)sc1C(=O)c1c(F)cccc1F [Example S125] | 49
49 | COc1ccccc1CNCCS(=O)(=O)N1CCC(Nc2nc(N)c(C(=O)c3c(F)cccc3F)s2)CC1 [Example S97] | 25
50 | CCCC(C)NCCS(=O)(=O)N1CCC(Nc2nc(N)c(C(=O)c3c(F)cccc3F)s2)CC1 (centres unmarked) [Example S93] | 33
51 | Cc1cnc(CNCCS(=O)(=O)N2CCC(Nc3nc(N)c(C(=O)c4c(F)cccc4F)s3)CC2)cn1 [Example S171] | 18
52 | Cc1cccc(CNCCS(=O)(=O)N2CCC(Nc3nc(N)c(C(=O)c4c(F)cccc4F)s3)CC2)c1 [Example S101] | 80
53 | COC(CN(C)CCS(=O)(=O)N1CCC(Nc2nc(N)c(C(=O)c3c(F)cccc3F)s2)CC1)OC [Example S30] | 18
54 | CC(=O)N1CCN(CCS(=O)(=O)N2CCC(Nc3nc(N)c(C(=O)c4c(F)cccc4F)s3)CC2)CC1 [Example S52] | 18
55 | CC(C)CCNCCS(=O)(=O)N1CCC(Nc2nc(N)c(C(=O)c3c(F)cccc3F)s2)CC1 [Example S122] | 54
56 | Nc1nc(NC2CCN(S(=O)(=O)CCN3CCN(C=O)CC3)CC2)sc1C(=O)c1c(F)cccc1F [Example S17] | 19
57 | CC(C)(CO)NCCS(=O)(=O)N1CCC(Nc2nc(N)c(C(=O)c3c(F)cccc3F)s2)CC1 [Example S80] | 13
58 | Nc1nc(NC2CCN(S(=O)(=O)CCNC3CCSC3=O)CC2)sc1C(=O)c1c(F)cccc1F (centres unmarked) [Example S152] | 95
59 | Nc1nc(NC2CCN(S(=O)(=O)CCNCC(F)(F)F)CC2)sc1C(=O)c1c(F)cccc1F [Example S106] | 98
